Here are results for 89 molecules from PubChem BioAssay AID463204 (Broad Institute, 2010).

Active and inactive are the calls of the source.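 Rule for the calls: active = AC50 no more than ten times the top concentration tested, that is within one log above it; inconclusive = flat curve fit with activity between 30% and 70%, or invalid poor fit; inactive = AC50 beyond ten times the top tested dose.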

What is called AC50 is the concentration at which the activity in the assay is half-maximal.

In the experiment the test system is S. cerevisiae Mot1-301 ts growth rescue, BacTiter-Glo ATP luminescence. Description: restored Mot1-301 yeast growth at 38.5C – whole organism, S. cerevisiae, Mot1-301 ts mutant, luminescence, dose retest, SUMOylation pathway inhibitor project, confirmation (AID 463204).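 Note: growth at restrictive 38.5 degrees C of Mot1-301 OY566 strain; actives raise luminescence by restoring growth of the ts mutant at high temperature.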
Turning to `CSc1ccccc1-c1nc(-c2ccncc2)no1`, the AC50 is > 42 µM (inactive).
The value for `C/C(CC(=O)Nc1cccnc1)=N\NC(=O)C(C)Oc1ccc(Cl)cc1Cl` (centres undefined) was > 42 µM (inactive); that for `COc1ccc(-c2nc(NC(=O)CCNC(=O)c3ccco3)sc2C)cc1` was > 42 µM (inactive); that for `CCCCN(C)C(=O)c1cc2c(Cl)nc3ccccc3c2s1` was > 42 µM (inactive).
Regarding `COc1cc(O)oc1C=Nc1ccc(C(=O)O)cc1`, the AC50 is > 42 µM (inactive).
Consider `COc1cccc(/C=N/n2cnc3ccccc32)c1OC`, for which the AC50 was > 42 µM (inactive).
As to `COc1ccc(Cc2nnc(NCCO)[nH]c2=O)cc1`, the AC50 is > 42 µM (inactive).
In the case of `COC(=O)Nc1ccc(S(=O)(=O)N2CCCC(C(=O)NC3CCS(=O)(=O)C3)C2)cc1` (centres undefined) it was > 42 µM (inactive); in that of `CCc1nnc(NC(=O)CSc2ccc(-c3ccc(-n4cccn4)cc3)nn2)s1`, > 42 µM (inactive).
Consider `COc1ccccc1-c1sc2ccccc2c1-c1ccc2c(c1)OCO2`, for which the AC50 was > 42 µM (inactive).
For the molecule `Cc1cccc(C)c1NS(=O)(=O)c1ccc(OCCNS(C)(=O)=O)cc1`, the AC50 was > 42 µM (inactive).
On to `Cc1ccc2cccc(OCc3nnc(SCC(=O)O)n3C)c2n1`, for which the AC50 was > 42 µM (inactive).
With `C=C1C(O)[C@@H]2O[C@]3(CC[C@H](/C=C/C(C)[C@@H]4CC(C)=CC5(O[C@H](C[C@@](C)(O)C(=O)O)CCC5O)O4)O3)CC[C@H]2O[C@@H]1C(O)CC(C)[C@H]1OC2(CCCCO2)CCC1C` (some centres undefined), the AC50 was 26 µM.
For the molecule `CC12CC3(C)CC(C)(C1)CC(C(=O)NC(=S)N1CCCC1)(C2)C3`, the AC50 was > 42 µM (inactive).
`CCCCNC(=O)c1ccccc1NC(=O)C1=C(C)OCCS1`: the AC50 was > 42 µM (inactive).
In the case of `CC(C)C(=O)NCCSc1c[nH]c2ccccc12`, the AC50 is > 42 µM (inactive).
Consider `CCC(=O)Nc1nc(CC(=O)Nc2ccccc2OC)cs1`, for which the AC50 was > 42 µM (inactive).
Consider `CCOC(=O)C1=C(C)NC(=O)CC1c1cc2c(cc1[N+](=O)[O-])OCO2` (centres undefined), for which the AC50 was > 42 µM (inactive).
With `O=C(NCc1ccccc1)c1cccc(COc2ccc(Cl)cc2)c1`, the AC50 is > 42 µM (inactive).
Turning to `Nc1ccc(Oc2ccccc2-c2ccccc2)cc1`, the AC50 is 20.8 µM.
With `Cc1cccc2nc(COc3ccc4ccccc4c3Br)cn12`, the AC50 is 11.9 µM.
On to `CN(C)C(=O)CNC(=O)C1CCCCC1`, for which the AC50 was > 42 µM (inactive).
For `CCc1cc2c(=O)c(-c3nc4ccccc4[nH]3)coc2c(CN2CCCCC2)c1O`, the AC50 is > 42 µM (inactive).
As to `COc1ccc(CN2CCN(C(=O)c3cc(-c4cccnc4)nc4ccc(Cl)cc34)CC2)c(OC)c1OC`, the AC50 was > 42 µM (inactive).
In the case of `O=C(O)C1C2CCC(O2)C1C(=O)NCCC1=CCCCC1` (centres undefined) it was > 42 µM (inactive); in that of `O=c1[nH]nc(Cc2ccc(-c3ccccc3Cl)o2)c2ccccc12`, > 42 µM (inactive); in that of `CCC1C(c2ccccc2)NC(c2ccccc2)CC1(O)c1ccc(F)cc1` (centres undefined), > 42 µM (inactive).
For `CC(C)(C)c1cc(NCCCn2ccnc2)n2ncc(-c3ccc(Cl)cc3)c2n1`, the AC50 is 5.57 µM.
The value for `CCOCCCNC(=O)C(c1ccc(OC)cc1)N(Cc1ccc2c(c1)OCO2)C(=O)CNC(C)=O` (centres undefined) was > 42 µM (inactive); that for `CC[n+]1c(/C=C/N(C)c2ccccc2)n(-c2ccccc2)c2ccc(-c3nc4ccccc4s3)cc21` was 19.6 µM.
With `COCC(=O)NNC(=O)c1ccccc1OC`, the AC50 was > 42 µM (inactive).
The value for `Cc1ccc(-c2nc(CS(=O)(=O)CC(=O)NC3CCCCC3C)c(C)o2)cc1` (centres undefined) was > 42 µM (inactive); that for `CCN(CC)S(=O)(=O)c1ccc(C(=O)NCCc2cc3c(OC)ccc(OC)c3[nH]c2=O)cc1` was > 42 µM (inactive).
Consider `Cc1ccn2cc(-c3cnoc3C)nc2c1`, for which the AC50 is > 42 µM (inactive).
In the case of `CCNC(=S)NNC(=O)c1ccc(=O)n(Cc2ccccc2)c1`, the AC50 was > 42 µM (inactive).
With `Cc1cc(C)c2c(Cn3ccnc3)cc(=O)oc2c1`, the AC50 was > 42 µM (inactive).
Regarding `O=C(/C=C/N1CCOCC1)c1coc2ccccc12`, the AC50 was > 42 µM (inactive).
On to `COCCCNCC(O)COc1cccc2[nH]c(C)cc12` (centres undefined), for which the AC50 was > 42 µM (inactive).
For `CC(=O)N1CCC2(CC1)CC(=O)c1cc(OCC(=O)N3CCCC3)ccc1O2`, the AC50 was > 42 µM (inactive).
In the case of `S=c1[nH]nc(-c2ccccn2)n1/N=C/c1ccccc1` it was > 42 µM (inactive).
In the case of `NC(=O)c1cccc2cc3ccccc3cc12` it was > 42 µM (inactive); in that of `CN(C)S(=O)(=O)c1cccc(NC(=O)C(c2ccccc2)c2ccccc2)c1`, > 42 µM (inactive); in that of `CCC(=O)N1c2ccc(S(=O)(=O)N3CCN(c4ccc([N+](=O)[O-])cc4)CC3)cc2CC1C` (centres undefined), > 42 µM (inactive).
In the case of `Nc1nc(-c2ccc(Cl)cc2)nc(-c2ccc(Cl)cc2)n1` it was > 42 µM (inactive).
As for `C(=N\N1CCN(C2c3ccccc3-c3ccccc32)CC1)/c1ccncc1`, the AC50 is 13.8 µM.
Regarding `O=C1CCC(C(=O)N2CCN(c3ccccc3)CC2)CN1CC1CCCCC1` (centres undefined), the AC50 is > 42 µM (inactive).
In the case of `CC1=Nc2ccc(C)cc2N(Cc2ccccc2)C(=O)C1`, the AC50 is > 42 µM (inactive).
`COc1ccc2[nH]cc(C(=O)C(=O)N3CCCCC3)c2c1`: the AC50 is > 42 µM (inactive).
Regarding `O=C(COC(=O)c1cc([N+](=O)[O-])ccc1N1CCOCC1)Nc1cccc(F)c1`, the AC50 was > 42 µM (inactive).
In the case of `O=C(O)c1ccc(/C=N/NC(=O)c2cc(-c3ccc4c5c(cccc35)CC4)n[nH]2)cc1`, the AC50 was > 42 µM (inactive).
Consider `O=C(COc1ccccc1)Nc1cccc(-c2nnc(-c3ccccc3)o2)c1`, for which the AC50 is > 42 µM (inactive).
For the molecule `Cc1cnc(=O)[nH]c1SCC(=O)c1ccc(F)cc1`, the AC50 is > 42 µM (inactive).
With `Cc1ccc(C)c(S(=O)(=O)n2cnc3ccccc32)c1`, the AC50 was > 42 µM (inactive).
The value for `COc1ccc(NC2CCCN(C(=O)c3csc(C)n3)C2)cc1` (centres undefined) was > 42 µM (inactive); that for `COc1cccc(OC)c1C(=O)Nc1ccc2c(c1)N(S(=O)(=O)c1cccs1)CCC2` was > 42 µM (inactive); that for `O=C(Nc1ccc([N+](=O)[O-])cn1)C1CC1` was > 42 µM (inactive).
`COc1ccc(CCC(=O)NNC(=S)Nc2cccc(C(C)=O)c2)cc1`: the AC50 is > 42 µM (inactive).
In the case of `CCOC(=O)c1oc2cc(OC(C)=O)ccc2c(=O)c1-c1ccc(OC)c(OC)c1` it was > 42 µM (inactive).
In the case of `COc1cc2c(cc1OC)C(c1ccccc1[N+](=O)[O-])N(C(C)=O)CC2` (centres undefined) it was > 42 µM (inactive).
Regarding `COc1ccc(NC(=O)c2ccc(-n3cncn3)c([N+](=O)[O-])c2)cc1`, the AC50 is > 21 µM (inactive).
Regarding `Cc1ccc(S(=O)(=O)N2c3ccc(S(N)(=O)=O)cc3CC2C)cc1` (centres undefined), the AC50 was > 42 µM (inactive).
For the molecule `OC1(c2ccc(F)cc2)CC2CCC(C1)N2Cc1nnnn1C1CCCCC1` (centres undefined), the AC50 was > 42 µM (inactive).
For the molecule `Cc1ccccc1Nc1cc(=O)oc2ccccc12`, the AC50 is > 42 µM (inactive).
For `COc1cc(CN2CCN(c3ncccn3)CC2)cc(OC)c1`, the AC50 was > 42 µM (inactive).
`C=CSc1sc(Cl)c(N(C)C)c1[N+](=O)[O-]`: the AC50 is > 42 µM (inactive).
In the case of `COc1cc(SC)ccc1C(=O)Nc1cc(C)c(OCC(=O)N2CCOCC2)c(C)c1` it was > 42 µM (inactive); in that of `Cc1nc(SCC(=O)O)n[nH]1`, > 42 µM (inactive); in that of `O=C1Nc2ccccc2/C1=C/c1ccc([N+](=O)[O-])cc1`, > 42 µM (inactive).
Consider `CC(=O)N1CCN(CC(O)COc2ccc(OCc3ccccc3)cc2)CC1` (centres undefined), for which the AC50 was > 42 µM (inactive).
As to `COc1cccc(CNC(=O)CCCn2nc(C)c3c(C)n(-c4ccccc4)nc3c2=O)c1`, the AC50 was > 42 µM (inactive).
Take `Cc1ccc(Oc2ccccc2NC(=O)C2=COCCO2)cc1`: the AC50 is > 42 µM (inactive).
In the case of `CCOC(=O)c1oc2c(c1C)C(=O)CCC2` it was > 42 µM (inactive); in that of `CCOc1ccccc1C(=O)NCc1ccc2c(c1)OCO2`, > 42 µM (inactive); in that of `COc1cccc(/C=C2/C(=O)NN(c3ccc(Br)cc3)C2=O)c1O`, > 42 µM (inactive).
On to `Cn1c(=O)c2c(nc(N/N=C/c3ccc(OC(=O)c4ccco4)cc3)n2Cc2ccccc2Cl)n(C)c1=O`, for which the AC50 was > 42 µM (inactive).
For the molecule `Cc1ccc(O)c(C)c1`, the AC50 is > 42 µM (inactive).
The value for `CCOC(=O)c1ccc(NC(=O)c2nc[nH]c2C(=O)N2CCc3ccccc3C2)cc1` was > 42 µM (inactive); that for `CC(=O)N1N=C(N)SC12CCCC2` was > 42 µM (inactive).
Regarding `COC(=O)Oc1ccc(/C=N/NS(=O)(=O)c2ccccc2)cc1OC`, the AC50 was > 42 µM (inactive).
For the molecule `CC(C)(C)c1ccc(C(=O)COC(=O)CN2C(=O)NC3(CCCC3)C2=O)cc1`, the AC50 is > 42 µM (inactive).
Regarding `CCC(C(=O)Nc1cccnc1)c1ccccc1` (centres undefined), the AC50 is > 42 µM (inactive).
Turning to `Nc1ccnc(=O)[nH]1`, the AC50 was > 42 µM (inactive).
Consider `O=[N+]([O-])c1cc([N+](=O)[O-])c2cc3ccccc3nc2c1`, for which the AC50 was 2.63 µM.
In the case of `CC(SC#N)C(=O)C12CC3CC(CC(C3)C1)C2` (centres undefined) it was 6.33 µM; in that of `CCCn1c(=O)c2ccccc2n2c(SCC(=O)N3CCc4ccccc4C3)nnc12`, > 42 µM (inactive); in that of `CCC(C)c1ccc(S(=O)(=O)N2CCN(C(=O)COc3ccc4c(C)cc(=O)oc4c3)CC2)cc1` (centres undefined), > 42 µM (inactive).
Regarding `CC(C)c1cccc(OCCCCN(C)C)c1`, the AC50 was > 42 µM (inactive).
Take `CCCCc1nnc(NC(=O)CSc2nc(O)c(-c3ccccc3)c(=O)[nH]2)s1`: the AC50 was > 42 µM (inactive).
As to `Oc1c(Br)cc(Br)cc1/C=N/N1CCN(Cc2ccccc2)CC1`, the AC50 is 1.78 µM.
